The values that follow come from ChEMBL document CHEMBL1139088, “Antihyperglycemic and antidyslipidemic agent from Aegle marmelos” (2007).

SMILES strings stand for the structures. Calls of active or inactive are those of the source. The calls are words filed in the database; no cut-off is given here.

The subject of assay [1] is Hamster. Nature of the assay: Decrease in plasma glycerol levels in dyslipidemic hamster model at 108 mg/kg after 7 days. It is filed as functional, Cricetinae. Set-up: scale not given: the % may be the effect or the level left.
Assay [2] concerns Hamster. Nature of the assay: Decrease in plasma triglyceride levels in dyslipidemic hamster model at 108 mg/kg after 7 days. In kind it is functional, Cricetinae. Set-up: scale not given: the % may be the effect or the level left.
Assay [3] has as its system Hamster. The assay is described as follows: Decrease in plasma FFA levels in dyslipidemic hamster model at 108 mg/kg after 7 days. It is filed as functional, Cricetinae. Set-up: scale not given: the % may be the effect or the level left.
For assay [4], the system named is Hamster. Nature of the assay: Increase in ratio of plasma HDL to plasma cholesterol levels at 108 mg/kg after 7 days. In kind it is functional, Cricetinae.
Assay [5] concerns Hamster. The assay is described as follows: Decrease in plasma cholesterol levels in dyslipidemic hamster model at 108 mg/kg after 7 days. It is filed as functional, Cricetinae. Set-up: scale not given: the % may be the effect or the level left.
Assay [6] has as its system Hamster. Nature of the assay: Increase in plasma HDL-C levels in dyslipidemic hamster model at 108 mg/kg after 7 days. Also on record: dose 108 mg/kg. In kind it is functional, organism-based. The note with it: Cricetinae.
Assay [7] concerns Rattus norvegicus. The assay is described as follows: Increase in blood glucose levels in Sprague-Dawley Albino rat at 100 mg/kg, po after 24 hrs. It is filed as functional.
The subject of assay [8] is Rattus norvegicus. The assay is described as follows: Increase in blood glucose levels in Sprague-Dawley Albino rat at 100 mg/kg, po after 5 hrs. It is filed as functional.
For assay [9], the system named is Hamster. The assay is described as follows: Decrease in plasma glycerol levels in dyslipidemic hamster model at 50 mg/kg after 7 days. It is filed as functional, Cricetinae. Also on record: scale not given: the % may be the effect or the level left.
The subject of assay [10] is Hamster. Nature of the assay: Increase in ratio of plasma HDL to plasma cholesterol levels at 50 mg/kg after 7 days. In kind it is functional, Cricetinae.
Assay [11] concerns Hamster. The assay is described as follows: Decrease in plasma triglyceride levels in dyslipidemic hamster model at 50 mg/kg after 7 days. It is filed as functional, Cricetinae. Also on record: scale not given: the % may be the effect or the level left.
Assay [12] relates to Hamster. The assay is described as follows: Increase in plasma HDL-C levels in dyslipidemic hamster model at 30 mg/kg after 7 days. It is filed as functional, organism-based. Also on record: dose 30 mg/kg. The note with it: Cricetinae.
The test system of assay [13] is Hamster. Nature of the assay: Decrease in plasma FFA levels in dyslipidemic hamster model at 50 mg/kg after 7 days. Also on record: scale not given: the % may be the effect or the level left. It is filed as functional, Cricetinae.
The test system of assay [14] is Hamster. The assay is described as follows: Decrease in plasma FFA levels in dyslipidemic hamster model at 30 mg/kg after 7 days. In kind it is functional, Cricetinae. Also on record: scale not given: the % may be the effect or the level left.
The subject of assay [15] is Hamster. Nature of the assay: Decrease in plasma cholesterol levels in dyslipidemic hamster model at 30 mg/kg after 7 days. It is filed as functional, Cricetinae. Also on record: scale not given: the % may be the effect or the level left.
The species entered for assay [16] is Homo sapiens. Nature of the assay: Inhibition of PTPase.
The subject of assay [17] is Hamster. The assay is described as follows: Decrease in plasma triglyceride levels in dyslipidemic hamster model at 30 mg/kg after 7 days. It is filed as functional, Cricetinae. Also on record: scale not given: the % may be the effect or the level left.
For assay [18], the system named is Hamster. Nature of the assay: Increase in plasma HDL-C levels in dyslipidemic hamster model at 50 mg/kg after 7 days. It is filed as functional, Cricetinae.
Assay [19] deals with Hamster. Nature of the assay: Decrease in plasma cholesterol levels in dyslipidemic hamster model at 50 mg/kg after 7 days. In kind it is functional, Cricetinae. Set-up: scale not given: the % may be the effect or the level left.
Assay [20] has as its system Hamster. The assay is described as follows: Increase in ratio of plasma HDL to plasma cholesterol levels at 30 mg/kg after 7 days. It is filed as functional, Cricetinae.
The test system of assay [21] is Hamster. The assay is described as follows: Decrease in plasma glycerol levels in dyslipidemic hamster model at 30 mg/kg after 7 days. Set-up: scale not given: the % may be the effect or the level left. In kind it is functional, Cricetinae.
The species entered for assay [22] is Homo sapiens. The assay is described as follows: Inhibition of alpha-glucosidase.

`CC(C)OC(=O)C(C)(C)Oc1ccc(C(=O)c2ccc(Cl)cc2)cc1` [FENOFIBRATE]: the Activity with Hamster [1] amounted to 36%; in the assay with Hamster [2] it was 42%; in the assay with Hamster [3] it was 20%; with Hamster [4], 10%; in the assay with Hamster [5], 18%. The outcome with Hamster [6] was inactive.

In the case of `CN(C)C(=N)NC(=N)N` [METFORMIN], the Activity with Rattus norvegicus [7] is 26.5%; with Rattus norvegicus [8], 23.5%.

With `COc1ccc([C@@H](O)CNC(=O)/C=C/c2ccccc2)cc1` [AEGELINE], the Activity in the assay with Hamster [9] was determined as 31%; with Hamster [10] it was 66%; with Hamster [11], 55%; in the assay with Hamster [13] it was 24%; in the assay on Hamster [14] it was 14%; with Hamster [15], 17%. In addition, the Activity with Hamster [17] is reported as 48%; in the assay with Hamster [18], 28%; with Rattus norvegicus [7] it was 16.9%; in the assay on Rattus norvegicus [8] it was 12.9%; with Hamster [19], 24%; with Hamster [20], 20%. Also, the Activity with Hamster [21] turned out to be 23%. Moreover, the result in the assay on Hamster [12], in the assay listed under Homo sapiens [16] and in the assay listed under Homo sapiens [22] was inactive.
